The source of these data is patent US10577322B2, “5-methoxytryptophan and its derivatives and uses thereof” (National Health Research Institutes, priority 2015, dated 2020).

Experiment [1] concerns IL-6 promoter. In words: IL-6 promoter-luciferase assay in RAW264.7 cells. The following applies: LPS 8 h. It is filed as cell-based, mouse. The method, then:
RAW264.7 macrophages were cotransfected with COX-2 promoter-luciferase, IL-6 promoter-luciferase constructs as previously described (Lee, G. L., et al.) or p5xNF-κB-luciferase (Stratagene) and pcDNA3.1-β-galactosidase plasmids using FuGENE 6 (Roche). After overnight transfection, the cells were incubated with or without LPS in the presence or absence of 5-MTP for 8 h. After treatment, cells were lysed, and luciferase activity was measured using an assay kit (Promega). β-galactosidase activity was used to normalize the data.
Moreover, RAW264.7 cells and IL-6 promoter-luciferase plasmid transfected RAW264.7 cells were pretreated with different concentrations of 5-MTP for 30 min, followed by LPS stimulation for 8 h. IL-6 promoter activity was measured by luciferase assay. IL-6 level in culture supernatants was measured by ELISA.

The subject of experiment [2] is lung tissues. In words: Lung histology (H&E) in LPS-treated mice. It is filed as in vivo. The following applies: LPS 60 mg/kg. The method, then: For histological studies, the lungs were perfused with saline, and immersed in formalin for 24 h. Tissue blocks were placed in formalin, dehydrated in a graded series of ethanol, embedded in paraffin, cut into 3 μm-thick serial sections, and stained with haematoxylin and eosin for detecting inflammatory cells, alveolar congestion and alveolar septal wall thickness and interstitial edema.
In addition, paraffin-embedded sections were prepared from lungs of mice injected with 60 mg/kg LPS with or without saline or 5-MTP for the indicated time. Lung tissues were stained with hematoxylin and eosin and examined under light microscopy. The results are shown in FIG. 5C, in which scale bars represent 100 μm.

The subject of experiment [3] is BALF total cell number. In words: Cell number in bronchoalveolar lavage fluid (trypan blue exclusion). Format: in vivo, mice. The note with it: 24 h after LPS. On the procedure: Furthermore, bronchoalveolar lavage fluid (BALF) was isolated from mice treated with LPS with or without various concentrations of 5-MTP for 24 h. Cell number in BALF was determined by trypan blue exclusion assay.

For experiment [4], the system named is neutrophil infiltration. In words: Neutrophil infiltration in lung tissues (Ly6G staining). Format: in vivo, mice. The method, then: Prior to immunohistochemical detection of COX-2, iNOS, Ly6g, or cleaved caspase-3 in lung sections, sections were deparaffinized with xylene, progressively rehydrated through graded alcohols. Antigen sites were retrieved by heating the sections on slides in pH 8 EDTA antigen. retrieval (Trilogy; Cell Marque Corporation) in electric pressure cooker for 15 min. […] All antibodies described hereafter were diluted in blocking buffer. Sections were incubated at room temperature for 2 h with primary antibody and then washed in PBST. The sections were incubated with primary antibody amplifier quanta (Thermo) for 10 minutes. After rinsing with PBST, the sections were incubated with HRP Polymer Quanto (Thermo) for 10 minutes and washed three times with PBST. COX-2, iNOS, Ly6g and cleaved caspase-3 were visualized by the addition of DAB Quanto Chromogen: Substrate for 3 minutes. Tissues were also counterstained with hematoxylin.
Thirty min after saline or 5-MTP administration, mice were injected intraperitoneally with LPS at 4 h, 12 h, 16 h and 24 h. Paraffin-embedded lung tissue specimens were subjected to immunohistochemical Ly6G staining for determination of neutrophil infiltration in lung tissues. The results are shown in FIG. 8A, in which scale bars represent 100 μm.

Experiment [5] relates to caspase-3. In words: Caspase-3 activity in splenocytes (fluorogenic substrate). The note with it: 5-MTP 100 mg/kg, 16 h. Format: in vivo, mice. On the procedure:
Caspase-3 activity was determined by the cleavage of the fluorometric substrate z-DEVD-AMC (Upstate Biotechnology) as previously described (Kuo, C. C., Liang, C. M., Lai, C. Y. & Liang, S. M. Involvement of heat shock protein(Hsp)90 beta but not Hsp90 alpha in antiapoptotic effect of CpG-B oligodeoxynucleotide. J Immunol 178, 6100-6108 (2007)).
In addition, caspase-3 activity in splenocytes of mice treated with saline, LPS or LPS plus 5-MTP (100 mg/kg) for 16 h was measured by fluorogenic substrate as described above. The results are shown in FIG. 9B, in which the error bare denotes mean±SD (n=6 mice/group).

The nature of experiment [6]: Spleen weight/body weight ratio in LPS-challenged mice. It is filed as in vivo. On the procedure: Furthermore, spleen weight/body weight (SW/BW) ratio was also assessed (n=6 mice/group).
The subject of experiment [7] is p38 MAPK. In words: LPS-induced p38 MAPK phosphorylation in RAW264.7 cells (immunoblot). The following applies: LPS 4 h. Format: cell-based, mouse. On the procedure: Cellular protein were resolved by 5% to 20% SDS-PAGE and transferred to nitrocellulose membranes and blotted with specific antibodies as previously described (Lee, G. L., et al.).
After pretreating RAW264.7 cells with different concentrations of 5-MTP for 30 min, cells were stimulated with LPS for 4 h. Cell lysates were immunoblotted with antibodies for p38, phospho-p38 (p-p38), ERK½, phospho-ERK½ (p-ERK½) or β-actin. […] Activation of p38 MAPK in macrophages is required for TLR-induced NF-κB activation, which is one of the key factors affecting TLR-induced cytokine production. Thus, we evaluated the effect of 5-MTP on LPS-induced. NF-κB activation.

The subject of experiment [8] is p300 HAT. In words: p300 HAT activity in peritoneal macrophages. The following applies: LPS, 5-MTP 50 μM. Format: cell-based, mouse. On the procedure: p300 HAT activity in peritoneal macrophages treated with LPS in the presence or absence of 5-MTP (50 μM) for the indicated time was measured with an p300 HAT activity assay kit.
The subject of experiment [9] is vascular calcification. In words: High fat diet-induced arterial calcification in ApoE-deficient mice (von Kossa). It is filed as in vivo. The note with it: 23.4 mg/kg 3 times a week i.p., 20 weeks. The method, then:
ApoE-deficient mice were fed with on a Western high fat diet containing 1.25% cholesterol and 21% fat (Research Diets) starting at 6 weeks of age. The mice were simultaneously treated with vehicle (PBS) or 5-MTP (23.4 mg/kg body weight, 3 times a week) by intraperitoneal injection. After 20 weeks, the aortic trees were dissected and lesions examined in the aortic arch and its branches. Vascular calcifications in the aortic root were evaluated by von Kossa staining.
Vascular smooth muscle cell (VSMC) calcification is the major phenomenon to induce atherosclerotic vascular calcification in cardiovascular disease (CVD). We next investigated the effect of 5-MTP derivatives on VSMC calcification.

For the compound `COc1ccc2[nH]cc(C[C@H](N)C(=O)O)c2c1` [5-MTP, 5-methoxytryptophan], the “LPS-induced IL-6 promoter activity” value in experiment [1] is on record as “inhibited”. In experiment [2], the “LPS-induced lung pathological changes (leukocyte infiltration, septal wall thickening, edema, congestion)” value is recorded as “significantly alleviated”. Moreover, the “total cell number in BALF” value in [3] is listed as “reduced by 5-MTP in a dose-dependent manner”. Moreover, the “neutrophil infiltration in lung tissues” value was “reduced the infiltration almost to the basal level” in experiment [4] (5-MTP at 100 mg/kg); “dose-dependently reduced” in [4] (LPS, 4 h, 12 h, 16 h and 24 h). The “LPS-induced caspase-3 cleavage in spleen cells” value in [5] is “prevented”. Further, the “spleen weight/body weight (SW/BW) ratio, spleen edema” value in experiment [6] is “ameliorated spleen edema in a dose-dependent manner”. Further, the “phosphorylation of p38 MAPK” value in experiment [7] is on record as “dose-dependently blocked”. Also, the “p300 HAT activation” value in experiment [8] is recorded as “significantly blocked p300 HAT activation up to 24 h”. Besides, the “high fat diet-induced vascular calcification” value in experiment [9] is “prevented”.
